Tests used:
CRL-8018 hybridoma cells [1] = assay: Microdrop isotype capture and isolation assay (FACS); assay type: cell-based, mouse; conditions: 100 nM
Experimental: Determination of Spontaneous and In-vitro Stimulated Switching Rate Using the Microdrop Isotype Capture and Isolation Assay Due to the low rate of isotype switching, analysis of large cell populations is necessary. —We, therefore, used a modified microdrop encapsulation protocol to isolate spontaneous or in-vitro induced rare IgG isotype switch variants among IgM secreting hybridoma cells. If the IgG concentration in supernatants was <0.1 μg/ml, we initially encapsulated multiple cells, followed by single cell encapsulation. In all cases, if,after in-vitro induction, the concentration of secreted IgG in supernatants was >0.1 μg/ml, one round of single cell encapsulation was sufficient for discriminating and sorting a small sub-population of positive cells.
Two aliquots of 500 μl melted CelBioGel-3™ were vortexed with 25 μl of 10% Pluronic F-68 solution (Sigma-Aldrich), equilibrated at 37° C. for 3 min and then each was mixed with at least 2×10^6 hybridoma cells in […] of growth medium. These mixtures were added to 15 ml prewarmed CelMix™, covered and shaken vigorously 10 times to form an emulsion. Then the vial was attached to CellSys100™ Microdrop Maker (One Cell Systems, Inc) and the emulsion was mixed at 1800 rpm for 1 min at RT, then 1800 rpm for 1 min at 0° C., and subsequently 1000 rpm for 6 min at 0° C. Microdrops were washed three times in DPBS to remove oil and then incubated in 7 ml DPBS containing streptavidin (Sigma-Aldrich) at a final concentration of 10 μg/ml for 10 min at RT.
After incubating with streptavidin, microdrops were washed three times by resuspending in 15 ml DPBS- followed by centrifugation at 1500 rpm for 5 min and then incubated with 10 μg/ml of biotinylated goat anti-mouse IgG for 10 min. Microdrops were again washed three times in DPBS- (as above) and resuspended in 20 ml of prewarmed growth medium and incubated at 37° C. for 2 hr for antibody secretion by the encapsulated cells. After incubation, microdrops were pelleted by centrifugation at 1500 rpm for 5 min, resuspended in cold DPBS- and labelled with 10 μg/ml of FITC-conjugated goat anti-mouse IgG-specific antibody (Jackson Immunochemicals). microdrops were washed twice in HBSS, resuspended in 2 ml of growth medium and sorted using a Coulter EPICS Elite; gating was set to sort only highly positive microdrops, based on controls.
To determine spontaneous and in-vitro induced switching rate using the microdrop isotype capture and isolation assay, CRL-8018 hybridoma cells were plated out in two 75 cm^2 flasks or two 12-well plates (2 ml/well) at a density of 1×10^4 cells/ml in complete growth medium alone or in the presence of stimulators as described above. Cells were cultured at 37° C., 5% CO2 in a humid incubator for 5 days. Cell culture supemates were harvested and IgM and/or IgG production was tested using IsoStip™ or an ELISA-based mouse Isotyping kit (Zymed, Inc.). All cells from 75 cm2 flasks and from wells positive for IgG production were pooled, resuspended in 100-200 μl of growth medium and encapsulated in microdrops. The first round of isotype capture and isolation enrichment with multiple occupied microdrops was then performed, as described above. After sorted cells were propagated in culture for 5 days, the second round of the assay was performed usingmicrodrops occupied by single cells. After isolation by FACS, IgG secretors were plated out in 96-well plates, 1 cell/well. The number of recovered clones was estimated using supernatant ELISA after incubating plates at 37° C. in 5% C02 for 14 days.
Fluorescence Activated Cell Sorting Cell sorting was performed using an EPICS Elite™ Coulter Corp. with a 100 μm flow nozzle. FITC-labelled detection regents were excited by the 488 nm spectral line of an argon laser. Green (FITC) fluorescence was collected using a 525 nm, long pass band filter. For statistical analysis, EPICS Elite 4.02 software was used. […]

CRL-8018 hybridoma cells [2] = assay: In-vitro induced IgG isotype switching by sequential sublining and mIgG ELISA; assay type: cell-based, mouse; conditions: retinoic acid 100 nM
Experimental: Induction of Class-Switching Using CRL-8018 cell line, we investigated and evaluated methods of increasing the number class-switching events in-vitro. Cells were plated in 75 cm^2 flasks or in 12-well plates at 1×10^4/ml and incubated for 7 days in complete growth medium supplemented with:
Determination of In-vitro Induced Switching Rate Using Sequential Sublining CRL-8018 cells were resuspended in growth medium supplemented with mitogen(s)/growth factors as described above and plated out in ten 96-well plates at a density of 1,000 cells/well. Cells were cultured at 37° C., 5% CO2 in a humid incubator for 5 days. Cell culture supernates were collected and an isotype-specific ELISA performed. Briefly, 96-well flexible assay plates, previously coated with 10μg/plate of purified goat anti-mouse IgG (Jackson Immunochemicals) in 20 mM NaHCO3 (Sigma-Aldrich), 50 μl/well, were incubated overnight at 4° C. and then washed 3 times in Dulbecco's phosphate buffered saline without calcium and magnesium/0.2% Tween 20 (DPBS-/Tween) (Sigma-Aldrich). Non-specific protein binding sites were blocked using PBS+1% BSA, 200 μl/well for 2 hr at room temperature (RT).
100 μl of each of the culture supemates were harvested and incubated in the anti-IgG coated plates for 2 hr at RT. The assay plates were washed three times in DPBS-/Tween, and 50 μl of HRP conjugated goat anti-mouse IgG (Jackson Immunochemicals) diluted 1:100 in PBS/Tween were applied to each well and incubated at RT for 1 hr. Plates were washed again and developed using 100 μl of TMB substrate solution (Sigma-Aldrich). The reaction was halted with 0.5M H2SO4 (Sigma-Aldrich) and plates were read at […] on an ELx800 ELISA plate reader (Bio-TEK Instruments, Inc.). Five rounds of the above procedure were performed to determine the switching rate.
11. Detection of In-vitro Induced IgG Isotype Switching Rate Among CRL-8018 Hybridoma Cells Using Sequennal Sublining Experiments were performed with CRL-8018 hybridoma cell line as described in Materials and Methods. […] Sequental sublining was performed as described in Materials and Methods. 1×10^6 cells were resuspended in 200 ml of growth medium supplemented with 100 nM of retinoic acid (5×10^3/ml) and plated out in ten 96-well plates at a density of 1,000 cells/well (0.2 ml/well). After 5 days of incubation at 37° C. and 5% CO2, mIgG isotype specific ELISA was performed with cell culture supemates. Cells from two positive wells were plated out in 96-well plates at a density of 100 cells/well (25 plates). Five rounds of the above procedure were performed: 1,000 cells/well, 100 cells/well, 10 cells/well, and 1 cell/well. […] About two months, 110 plates and 10,560 supemates for mIgG isotype specific ELISA were required for the assay.

[3] = after first round with 25 × 10^6 cells
[4] = second round, highest-fluorescence sub-population

For `CC1=C(/C=C/C(C)=C/C=C/C(C)=C/C(=O)O)C(C)(C)CCC1` [retinoic acid], the “First round of FACS, FITC MFI” value (CRL-8018 hybridoma cells [1]; 2 × 10^6 cells, single cell encapsulation) was 320.65, the “First round of FACS, % positive events detected” value (CRL-8018 hybridoma cells [1]; 2 × 10^6 cells, single cell encapsulation, 1 cell per GMD) was 0.15% and the “First round of FACS, FITC MFI” value (CRL-8018 hybridoma cells [1]; 25 × 10^6 cells, multiple cell encapsulation) was 17.93. For the same compound, the “First round of FACS, % positive events detected” value (CRL-8018 hybridoma cells [1]; 25 × 10^6 cells, multiple cell encapsulation, 2.5 cells per GMD) was 0.09%, the “Sequential second round of FACS of single occupied GMDs, % positive events detected” value (CRL-8018 hybridoma cells [1]; [3]) was 36.4% and the “Sequential second round of FACS of single occupied GMDs, FITC MFI” value (CRL-8018 hybridoma cells [1]; [3]) was 11.3. The “Sorted GMDs % pos” value (CRL-8018 hybridoma cells [1]; [4]) was 2.9%, the “Sorted GMDs MFI” value (CRL-8018 hybridoma cells [1]; [4]) was 75.2 and the “rate of isotype switching” value (CRL-8018 hybridoma cells [2]) was about 0.0006%. The “% positive wells” value (CRL-8018 hybridoma cells [2]; 1 cell/well, of 2400 wells) was 91.2%, the “% positive wells” value (CRL-8018 hybridoma cells [2]; 10 cells/well, of 2400 wells) was 23.5% and the “% positive wells” value (CRL-8018 hybridoma cells [2]; 100 cells/well, of 2400 wells) was 12.4%. For the same compound, the “% positive wells” value (CRL-8018 hybridoma cells [2]; 1,000 cells/well, of 960 wells) was 0.6%, the mIgG positive wells (CRL-8018 hybridoma cells [2]; plating density 1 cell/well) was 2188 and the mIgG positive wells (CRL-8018 hybridoma cells [2]; plating density 10 cells/well) was 564. It also gave a mIgG positive wells (CRL-8018 hybridoma cells [2]; plating density 100 cells/well) of 298 and a mIgG positive wells (CRL-8018 hybridoma cells [2]; plating density 1,000 cells/well) of 6.
